Assay results from the NIST ThermoML archive (doi:10.1021/je2010038).

Experiment: xn = mol fraction of the nth substance listed
Details: Liquid, Vibrating tube method

NCCO [2-aminoethan-1-ol] + O
mass density [kg/m3]
Details	x1 = 0.1122	x1 = 0.1643	x1 = 0.2278	x1 = 0.3067	x1 = 0.4077	x1 = 0.5412	x1 = 0.7264	x1 = 1
333.15 K, 101 kPa	–	–	–	–	1000.8	998.2	992.7	983.9
338.15 K, 101 kPa	989.5	992.7	995.4	997.1	997	994.2	988.7	979.8
343.15 K, 101 kPa	986.1	989.4	991.9	993.2	993.1	990.2	984.6	975.8
348.15 K, 101 kPa	983	985.9	988.3	989.5	989.2	986.2	980.6	971.6
353.15 K, 101 kPa	979.4	982.4	984.5	985.6	985.2	982.1	976.5	967.5
358.15 K, 101 kPa	976.1	978.7	980.8	981.8	981.2	978	972.3	963.4
363.15 K, 101 kPa	972.5	975	976.9	977.7	977.1	973.9	968.1	959.2
373.1 K, 700 kPa	965.3	967.2	969	969.4	968.5	965.3	959.3	950.9
383.15 K, 700 kPa	957.4	959.1	960.6	960.8	959.8	956.5	950.6	942.3
393.15 K, 700 kPa	949.1	950.7	952	952.1	950.9	947.6	941.7	933.5
403.15 K, 700 kPa	940.6	941.9	943.1	943.1	941.9	938.6	932.7	924.7
413.15 K, 700 kPa	931.7	932.9	934	933.8	932.6	929.3	923.6	915.7
423.15 K, 700 kPa	922.3	923.3	924.3	924.1	922.8	919.5	914.1	906.4
